One experiment has as its system human neutrophils. Briefly: Ca-ionophore stimulated neutrophils, citrullinated H3 immunostaining and confocal microscopy / immunoblot. The class given is cell-based. Particulars: 50 µM peptide, pre-incubated 60 min, 5 µM Ca-Ionophore. The protocol:
Peripheral venous blood was isolated from consenting healthy adult volunteers in heparin tubes as previously described. Briefly, blood samples were on Histopaque 1119 (Sigma-Aldrich) and then centrifuged for 20 min at 800 × g. The plasma was collected and centrifuged for a second time for 20 min at 800 × g. The neutrophil layer was collected and washed in Hyclone Hank’s Balanced Salt Solution (HBSS) -Ca, -Mg, -Phenol red (GE Healthcare) supplemented with 10 mM HEPES (Invitrogen) 0.1% FBS and further purified with a discontinuous Percoll (GE Healthcare) gradient consisting of layers with densities of 85, 80, 75, 70 and 65% and centrifuged for 20 min at 800 × g. Neutrophil-enriched layers were then collected and washed, and neutrophil purity was assessed using flow cytometry.
About 5 × 10^4 sorted neutrophils were seeded in 24-well cell culture plates containing glass coverslips in HyClone HBSS +Ca, +Mg, - Phenol red (GE Healthcare) supplemented with 10 mM HEPES (Invitrogen). Neutrophils were stimulated with 5 µM Ca-Ionophore (Sigma) and fixed for 20 min at room temperature with 2% paraformaldehyde at RT. Cells were then washed and permeabilized with 0.5% Triton X-100 in PBS. Non-specific binding was blocked with 2% BSA (Sigma) and 2% donkey serum (Sigma) in PBS. Samples were stained with DAPI (Life Technologies), the rabbit anti-CitH3 (Abcam; ab5103 1:500) and donkey anti-rabbit alexa488 (Invitrogen; A21206). Fluorescence imaging was performed on a Leica TCS SP8 inverted confocal microscope using sequential scan in between frames mode with a 20x objective.
Neutrophil samples were boiled in a sodium dodecyl sulphate (SDS) buffer containing dithiothreitol (DTT) and run on a polyacrylamide gel electrophoresis (SDS-PAGE) using Criterion TGX precast gels (Any-KD; Bio-Rad Laboratories). Proteins were then transferred to a PVDF membrane (Bio-Rad Laboratories) via semi-dry transfer. The membrane was blocked with 5% BSA (Fisher Scientific) in Tris-buffered saline with 0.1% Tween-20 (TBS-T). Levels of citrullinated histone H3, total H3 and myeloperoxidase (MPO) were assessed by incubating membranes in either anti-histone H3 citrulline R2 + R8 + R17 (Abcam; ab5103 1:1000), anti-histone H3 (Millipore; 07-690 1:10000) or anti-MPO (DAKO; A0398 1:2500) overnight at 4 °C, respectively. For cell lysate-based assays and pull-down assays, membranes were incubated as above with anti-hPADI4 (Abcam; ab50332; 1:1000 in 5% BSA/TBS-T), anti-Bcr (Cell Signalling #3902S; 1:1000 in 3% milk/TBS-T) and anti-Impdh2 (Cell Signalling #57068S; 1:1000 in 3% milk/TBS-T). Membranes were washed in 0.1% TBS-T and subsequently incubated with goat anti-rabbit HRP or anti-goat (Fisher Scientific) for 1 h, followed by final washes in 0.1% TBS-T. Membranes were imaged with enhanced chemiluminescent substrate (ECL) (Thermo Fisher) on a Bio-Rad imager.
In general terms: Immunoblotting shows a protein as a band on a membrane.

The test system of another experiment is hPADI4-stable mES cells. The experiment can be described thus: High content microscopy of citrullinated histone H3 (H3Cit) in hPADI4-stable mES cells. Particulars: mean H3Cit intensity, KSR/2i 3 h, range of peptide concentrations. The class given is cell-based, mouse. How it is done:
HaLo-GFP-mito HeLa cells were grown in DMEM (Gibco) supplemented with 10% foetal bovine serum (FBS), penicillin/streptomycin (100 µg/ml) and puromycin (1 µg/ml) at 37 °C, 5% CO2. HaLo-GFP-mito HeLa cell line[82] was profiled by short tandem repeat analysis (STR) and tested negative for mycoplasma by the Cell Services Technology Platform at the Francis Crick Institute. E14 –mouse embryonic stem cells (Cambridge Stem Cell Institute, UK) were cultured in plates coated with 1% gelatine in GMEM supplemented with 10% foetal calf serum (FCS) batch-tested for ES cell culture (Gibco), 0.1 mM non-essential amino acids, 2 mM L-glutamine, 1 mM sodium pyruvate, 0.1 mM β-mercaptoethanol and 50 ng/mL leukaemia inhibitory factor (LIF) (ESGRO, Millipore). For PADI4 activation, cells were cultured in GMEM containing 10% knockout serum replacement (KSR, Life Technologies), 1% FCS batch-tested for ES cell culture (Gibco), 0.1 mM non-essential amino acids, L-glutamine, 1 mM sodium pyruvate, 0.1 mM β-mercaptoethanol, 50 ng/mL LIF (ESGRO, Millipore), 1 μM PD0325901 (AxonMedChem) and 3 μM CHIR99021 (AxonMedChem). For the generation of E14 mES stably expressing human PADI4 (hPADI4-stable), human PADI4 cDNA was inserted into ES E14 cells using the piggyBac transposon system. The Gateway system was used to clone human PADI4 into the piggyBac vector using primers PADI4_AttB1_F and PADI4_AttB2_R (Table S4). pPB-CAG-CTRL (empty vector) or pPB-CAG-hPADI4 vectors […] were transfected with the piggyBac transposase (pPBase) expression vector, pCAGPBase […], by lipofection according to the manufacturer’s instructions (Lipofectamine 2000, Invitrogen). E14 cells constitutively expressing the hygromycin resistance gene and human PADI4 were selected and expanded in media containing […] hygromycin.
E14 cells were seeded onto 96-well PerkinElmer cell carrier ultra plates (Phenoplates) coated with 0.1% gelatine, at 25,000 cells per well and grown overnight at 37 °C, 5% CO2. Outer wells were excluded but medium was added to minimise any edge effects. […]

Bridge positions count the residues as written; N and C are the ends. Square brackets hold non-standard residues; d marks the D form. Peptide text beside a SMILES is read from it.

As for `N=C(N)NCCC[C@@H]1NC(=O)[C@H](CC(=O)O)NC(=O)[C@@H](Cc2ccc(O)cc2)NC(=O)CSC[C@@H](C(=O)NCC(N)=O)NC(=O)[C@H](Cc2ccc(O)cc2)NC(=O)[C@H](CCCCN)NC(=O)[C@@H]2CCCN2C(=O)[C@H](Cc2c[nH]cn2)NC(=O)[C@H](CCCNC(=N)N)NC(=O)[C@H](Cc2ccc(O)cc2)NC(=O)[C@H](Cc2c[nH]cn2)NC(=O)[C@H](Cc2c[nH]cn2)NC1=O` [PADI4_3i] ({CH2CO}-[dY]DRHHYRHPKYCG-NH2; thioether N-12), the “H3Cit levels in neutrophils treated with calcium ionophore” value in the experiment on human neutrophils is on record as “neither response was affected”. Moreover, the “inhibition of intracellular PADI4 (in words)” value in the experiment with hPADI4-stable mES cells is recorded as “no inhibition”.

These data come from paper PMC11555231 (Nature Communications, 2024).
